Laboratory results reported in the CheMixHub viscosity set.
“And” between values parts separate entries of the source, which are not always exact repeats. Equal entries are not always repeated.

Key:
[1] = xn = mol fraction of the nth substance listed

CCCCCCCCCCCC[P+](CC)(CC)CC.N#Cc1ccc[n-]1
100 kPa
Conditions	viscosity
293.15 K	422 mPa·s and 423 mPa·s
298.15 K	296 mPa·s and 310 mPa·s
303.15 K	212 mPa·s and 214 mPa·s
313.15 K	117 mPa·s and 114 mPa·s

CCCCCCCCCCO
Conditions	viscosity
293.15 K, 100 kPa	14.27 mPa·s
293.15 K, 101 kPa	13.04 mPa·s
293.15 K, 101.33 kPa	14.55 mPa·s
298.15 K, 101.33 kPa	11.57 mPa·s
300 K, 101 kPa	10.3 mPa·s
303.15 K, 100 kPa	9.708 mPa·s
303.15 K, 101.3 kPa	8.835 mPa·s
308 K, 101 kPa	7.646 mPa·s
308.15 K, 100 kPa	8.108 mPa·s
308.15 K, 101.3 kPa	8.39 mPa·s
308.15 K, 101.33 kPa	7.918 mPa·s
310 K, 101 kPa	7.09 mPa·s
313 K, 101 kPa	6.396 mPa·s
313.15 K, 100 kPa	6.846 mPa·s
313.15 K, 101 kPa	6.846 mPa·s and 7.929 mPa·s and 6.845 mPa·s
313.15 K, 101.3 kPa	6.955 mPa·s
313.15 K, 101.33 kPa	6.955 mPa·s and 6.955 mPa·s and 6.955 mPa·s
318.15 K, 100 kPa	5.879 mPa·s and 5.771 mPa·s and 5.785 mPa·s
318.15 K, 101.3 kPa	5.878 mPa·s
320 K, 101 kPa	5 mPa·s
323.15 K, 100 kPa	4.918 mPa·s and 4.94 mPa·s

CCn1cc[n+](C)c1.F[B-](F)(F)F
viscosity
Conditions	293.15 K	298.15 K	303.15 K	313.15 K	323.15 K
100 kPa	50.54 mPa·s	41.45 mPa·s	34.53 mPa·s	24.83 mPa·s	18.62 mPa·s
101 kPa	–	36.8 mPa·s	28 mPa·s and 28 mPa·s	20.41 mPa·s and 20.41 mPa·s	15.35 mPa·s and 15.35 mPa·s

CN1CCN(C)C1=O
100 kPa
Conditions	viscosity [mPa·s]
293.15 K	2.139
298.15 K	1.945
303.15 K	1.76
308.15 K	1.616
313.15 K	1.491
318.15 K	1.381
323.15 K	1.28

OCCN(CCO)CCO
viscosity
Conditions	293.15 K	298.15 K	303.15 K	313.15 K	323.15 K
100 kPa	935 mPa·s	611 mPa·s	413 mPa·s	–	–
101 kPa	911.7 mPa·s and 795 mPa·s	607 mPa·s	403 mPa·s	201.7 mPa·s	123 mPa·s

OCCOCCOCCO
viscosity
Conditions	293.15 K	298.1 K	298.15 K	308.15 K	313.15 K	318.15 K	323.15 K
100 kPa	42 mPa·s and 48.2 mPa·s and 48.4 mPa·s	–	37.1 mPa·s and 37.8 mPa·s	23.3 mPa·s	19.8 mPa·s	15.4 mPa·s and 15.83 mPa·s and 15.1 mPa·s	13.23 mPa·s
101 kPa	–	37.4 mPa·s	37.1 mPa·s	23.36 mPa·s and 21.2 mPa·s	19.8 mPa·s	15.59 mPa·s and 16.1 mPa·s	–
101.32 kPa	46.1 mPa·s	–	–	–	17.4 mPa·s	–	–

COC=O + O=C1CCCO1
[1], 298.15 K, 101.33 kPa
Conditions	viscosity [mPa·s]
x1 = 0.0499	1.589
x1 = 0.1025	1.457
x1 = 0.153	1.367
x1 = 0.2017	1.262
x1 = 0.2492	1.175
x1 = 0.303	1.08
x1 = 0.4004	0.913
x1 = 0.4594	0.821
x1 = 0.5053	0.747
x1 = 0.5599	0.678
x1 = 0.6177	0.611
x1 = 0.7071	0.515
x1 = 0.7556	0.456
x1 = 0.8	0.426
x1 = 0.8515	0.38
x1 = 0.9005	0.344
x1 = 0.9511	0.331

Cc1ccc(N)cc1 + O=[N+]([O-])c1ccccc1O
[1], 323.1 K, 101 kPa
Conditions	viscosity [mPa·s]
x2 = 0.296	1.835
x2 = 0.75	2.15

CCCCCCCCCCCC[P+](CC)(CC)CC.N#Cc1ccc[n-]1 + OCC(O)CO
[1], 100 kPa
Conditions	viscosity [mPa·s]
293.15 K, x1 = 0.542	941
293.15 K, x1 = 0.677	861
298.15 K, x1 = 0.003	864
298.15 K, x1 = 0.01	905
298.15 K, x1 = 0.343	974
298.15 K, x1 = 0.426	715
303.15 K, x1 = 0.041	788
303.15 K, x1 = 0.056	912
303.15 K, x1 = 0.196	957
303.15 K, x1 = 0.292	734

CCCCCCCCCCCC[P+](CC)(CC)CC.N#Cc1ccc[n-]1 + OCCN(CCO)CCO
viscosity [mPa·s], [1], 100 kPa
Conditions	x1 = 0.035	x1 = 0.091	x1 = 0.207	x1 = 0.28	x1 = 0.473	x1 = 0.687	x1 = 0.809
293.15 K	991	–	876	863	853	836	718
298.15 K	–	675	–	–	–	–	–

CCn1cc[n+](C)c1.F[B-](F)(F)F + OCCO
[1]
Conditions	viscosity [mPa·s]
313.15 K, 101 kPa, x1 = 0.7003	10.55
323.15 K, 100 kPa, x1 = 0.717	9.915
323.15 K, 101 kPa, x1 = 0.7997	9.913

Cc1ccc(N)cc1 + Oc1ccccc1
[1], 101 kPa
Conditions	viscosity [mPa·s]
303.1 K, x2 = 0.43	7.57
303.1 K, x2 = 0.507	8.64
303.1 K, x2 = 0.619	9.42
303.1 K, x2 = 0.652	9.62
303.1 K, x2 = 0.741	8.94
313.05 K, x2 = 0.111	2.632
313.05 K, x2 = 0.2288	3.352
313.05 K, x2 = 0.3265	4.09
313.05 K, x2 = 0.4169	4.82
313.05 K, x2 = 0.4949	5.43
313.05 K, x2 = 0.5828	6.015
313.05 K, x2 = 0.6568	6.29
313.05 K, x2 = 0.737	6.27
313.05 K, x2 = 0.8217	5.915
313.05 K, x2 = 0.9089	5.38

c1ccc(Oc2ccccc2)cc1 + c1ccc(-c2ccccc2)cc1
[1]
Conditions	viscosity [mPa·s]
293.15 K, 101 kPa, x1 = 0.705	4.35
298.15 K, 101 kPa, x1 = 0.705	3.78
298.15 K, 101 kPa, x1 = 0.85	3.71
298.95 K, 101.33 kPa, x1 = 0.715	3.66
303.15 K, 101 kPa, x1 = 0.85	3.32
308.15 K, 101 kPa, x1 = 0.705	2.94
308.15 K, 101 kPa, x1 = 0.85	2.93
309.85 K, 101.33 kPa, x1 = 0.715	2.84
313.15 K, 101 kPa, x1 = 0.55	2.63
313.15 K, 101 kPa, x1 = 0.705	2.61
313.15 K, 101 kPa, x1 = 0.85	2.61
314.15 K, 101.33 kPa, x1 = 0.715	2.57
318.65 K, 101.33 kPa, x1 = 0.715	2.4
321.95 K, 101.33 kPa, x1 = 0.715	2.29

CC(C)CCC[C@@H](C)[C@H]1CC[C@H]2[C@@H]3CC=C4C[C@@H](O)CC[C@]4(C)[C@H]3CC[C@]12C + c1ccccc1
viscosity [mPa·s], [1], 101.33 kPa
Conditions	x1 = 0.00346	x1 = 0.00447	x1 = 0.00753	x1 = 0.008796	x1 = 0.01276	x1 = 0.01496	x1 = 0.01612	x1 = 0.01894	x1 = 0.02302
298 K	0.617	0.624	0.643	0.651	0.681	0.698	0.708	0.733	0.773
303 K	0.574	0.579	0.598	0.607	0.633	0.647	0.657	0.677	0.714
313 K	0.506	0.509	0.525	0.529	0.552	0.565	0.571	0.588	0.614
323 K	0.448	0.453	0.466	0.472	0.489	0.499	0.504	0.517	0.541
